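Exposure lasted 48 hours, with cells grown in 96-well plates and compounds tested at five concentrations. GI50: concentration for 50% inhibition of growth.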 The source made the active and inactive calls. Rule as the data show it: active = GI50 up to about 1.1 µM and inactive = higher.
Tests used:
Assay in all cases: NCI-60 cell line screen, 48 h
786-0 = system: 786-0
A549 = system: A549
HL-60 = system: HL-60
HOP-92 = system: HOP-92
KM12 = system: KM12
LOX IMVI = system: LOX IMVI
M14 = system: M14
MDA-N = system: MDA-N
NCI-H226 = system: NCI-H226
NCI/ADR-RES = system: NCI/ADR-RES
OVCAR-3 = system: OVCAR-3
OVCAR-4 = system: OVCAR-4
OVCAR-5 = system: OVCAR-5
SF-268 = system: SF-268
SF-539 = system: SF-539
SK-MEL-28 = system: SK-MEL-28
SNB-75 = system: SNB-75
UACC-257 = system: UACC-257
SR = system: SR

Measured: GI50

N=c1sc2ccccc2n1CC[S-].c1ccc2c(c1)sc1[n+]2CCS1
inactive: 786-0 16.8 µM | A549 16.9 µM | HL-60 22.5 µM | HOP-92 17 µM | KM12 17.5 µM | LOX IMVI 16.9 µM | M14 16.1 µM | MDA-N 37.1 µM | NCI-H226 16.7 µM | NCI/ADR-RES 20.4 µM | OVCAR-3 19.3 µM | OVCAR-4 16.4 µM | OVCAR-5 20.5 µM | SF-268 20 µM | SF-539 6.58 µM | SK-MEL-28 18.7 µM | SNB-75 41.5 µM | UACC-257 17.8 µM

COc1ccc(C(=O)/C=C/c2ccc(OCCCCCCCCCCOc3ccc(/C=C/C(=O)c4ccc(OC)cc4)cc3)cc2)cc1
inactive: 786-0 > 100 µM | A549 > 100 µM | HL-60 > 100 µM | KM12 > 100 µM | M14 > 100 µM | MDA-N > 100 µM | NCI-H226 > 100 µM | NCI/ADR-RES > 100 µM | OVCAR-4 > 100 µM | OVCAR-5 > 100 µM | SF-268 > 100 µM | SF-539 > 100 µM | SK-MEL-28 > 100 µM | SNB-75 69.7 µM | SR > 100 µM | UACC-257 > 100 µM

CC(C)(C)N/N=C(\C(=O)NC1=C(Cl)C(=O)c2ccccc2C1=O)C1C=CCS1(=O)=O (stereo unspecified)
inactive: 786-0 22.4 µM | A549 16.9 µM | HL-60 > 100 µM | HOP-92 14.1 µM | KM12 16 µM | LOX IMVI 7.98 µM | M14 11.5 µM | MDA-N 2.44 µM | NCI-H226 12.6 µM | NCI/ADR-RES 22 µM | OVCAR-3 2.65 µM | OVCAR-4 16.4 µM | OVCAR-5 21.2 µM | SF-268 21.9 µM | SF-539 23.1 µM | SK-MEL-28 > 100 µM | SNB-75 11.1 µM | UACC-257 13.6 µM

COc1cc(C(=O)/C=C/c2ccc(OCC#N)cc2)cc(OC)c1OC
inactive: 786-0 22.2 µM | A549 21.4 µM | HOP-92 17 µM | KM12 16 µM | M14 > 10 µM | MDA-N 38 µM | NCI-H226 23.2 µM | NCI/ADR-RES 18 µM | OVCAR-3 22.2 µM | OVCAR-4 37.4 µM | OVCAR-5 47.5 µM | SF-268 33.3 µM | SF-539 17.3 µM | SK-MEL-28 17.3 µM | SNB-75 > 10 µM | SR 23.6 µM | UACC-257 34 µM

O=c1[nH]nc(-c2ccccc2)n1/N=C/c1ccccc1O
inactive: 786-0 29.2 µM | A549 > 100 µM | HOP-92 67.3 µM | KM12 47 µM | LOX IMVI > 100 µM | MDA-N > 100 µM | NCI-H226 > 100 µM | NCI/ADR-RES > 100 µM | OVCAR-3 59.4 µM | OVCAR-4 28.6 µM | OVCAR-5 > 100 µM | SF-268 80.2 µM | SF-539 78.2 µM | SR > 100 µM | UACC-257 > 100 µM

CN(Cc1cccc2ccsc12)/N=C\c1ccc(Cl)cc1
inactive: 786-0 > 100 µM | A549 30.4 µM | HOP-92 > 100 µM | KM12 58.5 µM | LOX IMVI > 100 µM | M14 79.4 µM | MDA-N 39.2 µM | NCI-H226 89.9 µM | NCI/ADR-RES > 100 µM | OVCAR-3 10.6 µM | OVCAR-4 46.1 µM | OVCAR-5 > 100 µM | SF-268 > 100 µM | SK-MEL-28 > 100 µM | SNB-75 57.1 µM | SR 18.4 µM | UACC-257 18.8 µM

COc1cc2c(cc1OC)CCc1cc(OC)c(OC)cc1CC2
inactive: 786-0 > 100 µM | A549 > 100 µM | HOP-92 > 100 µM | KM12 > 100 µM | LOX IMVI > 100 µM | M14 > 100 µM | MDA-N > 100 µM | NCI-H226 > 100 µM | NCI/ADR-RES > 100 µM | OVCAR-3 > 100 µM | OVCAR-4 > 100 µM | OVCAR-5 > 100 µM | SF-539 > 100 µM | SK-MEL-28 > 100 µM | SNB-75 > 100 µM | SR > 100 µM | UACC-257 > 100 µM

CN1N(c2ccccc2)C(=O)C2=NC=C(C#N)C(=N)C21C (stereo unspecified)
inactive: 786-0 > 100 µM | A549 > 100 µM | HOP-92 > 100 µM | KM12 > 100 µM | LOX IMVI > 100 µM | M14 > 100 µM | MDA-N > 100 µM | NCI-H226 > 100 µM | NCI/ADR-RES > 100 µM | OVCAR-3 > 100 µM | OVCAR-4 > 100 µM | OVCAR-5 > 100 µM | SF-539 > 100 µM | SK-MEL-28 > 100 µM | SNB-75 > 100 µM | SR 19.8 µM | UACC-257 > 100 µM

COc1ccc2[nH]c3c(c2c1)CCc1ccccc1-3
inactive: 786-0 50.7 µM | A549 > 100 µM | HOP-92 51.2 µM | KM12 32.4 µM | LOX IMVI 78.9 µM | M14 > 100 µM | MDA-N > 100 µM | NCI-H226 > 100 µM | NCI/ADR-RES 40.4 µM | OVCAR-3 > 100 µM | OVCAR-4 37.6 µM | OVCAR-5 > 100 µM | SF-268 38.7 µM | SF-539 16.7 µM | SK-MEL-28 > 100 µM | SNB-75 26.1 µM | SR 84.9 µM | UACC-257 > 100 µM

COc1cc2c(cc1O)NC(=O)[C@@H]1CCCN1C2=O
inactive: 786-0 > 100 µM | A549 > 100 µM | HOP-92 > 100 µM | KM12 > 100 µM | LOX IMVI > 100 µM | M14 > 100 µM | MDA-N > 100 µM | NCI-H226 > 100 µM | NCI/ADR-RES > 100 µM | OVCAR-3 > 100 µM | OVCAR-4 > 100 µM | OVCAR-5 > 100 µM | SF-268 > 100 µM | SF-539 > 100 µM | SK-MEL-28 > 100 µM | SNB-75 > 100 µM | SR > 100 µM | UACC-257 > 100 µM

COc1cc(C)c(S(=O)(=O)N(CCCN)OCCCN)c(C)c1C
inactive: 786-0 45.6 µM | A549 68.5 µM | KM12 40.8 µM | LOX IMVI 27.8 µM | M14 23.6 µM | MDA-N 36.9 µM | NCI-H226 > 100 µM | NCI/ADR-RES > 100 µM | OVCAR-3 61.9 µM | OVCAR-4 > 100 µM | OVCAR-5 85.5 µM | SF-268 36.7 µM | SK-MEL-28 38.9 µM | SNB-75 34.2 µM | SR 17.6 µM | UACC-257 21.4 µM

COc1ccc(CNC(=O)[C@H](Cc2ccc(O)cn2)NC(C)=O)cc1
inactive: 786-0 > 100 µM | A549 > 100 µM | HL-60 > 100 µM | KM12 > 100 µM | LOX IMVI > 100 µM | M14 > 100 µM | MDA-N > 100 µM | NCI-H226 > 100 µM | NCI/ADR-RES > 100 µM | OVCAR-3 > 100 µM | OVCAR-4 > 100 µM | OVCAR-5 > 100 µM | SF-268 > 100 µM | SF-539 > 100 µM | SK-MEL-28 > 100 µM | SR > 100 µM | UACC-257 > 100 µM

CNC(=O)C1(C#N)C(c2ccccc2)C(C#N)(C(=O)NC)C1c1ccccc1 (stereo unspecified)
inactive: 786-0 > 100 µM | A549 > 100 µM | HOP-92 > 100 µM | KM12 > 100 µM | LOX IMVI > 100 µM | M14 > 100 µM | MDA-N > 100 µM | NCI-H226 98.9 µM | NCI/ADR-RES > 100 µM | OVCAR-3 > 100 µM | OVCAR-4 > 100 µM | OVCAR-5 > 100 µM | SF-268 > 100 µM | SF-539 > 100 µM | SK-MEL-28 > 100 µM | SNB-75 > 100 µM | SR > 100 µM

CCCCCCC(=O)OC[n+]1cccc(-c2c(COC(=O)NC(C)C)c(COC(=O)NC(C)C)c3n2CCC3)c1
inactive: 786-0 21.6 µM | A549 60 µM | HL-60 8.57 µM | HOP-92 24.9 µM | KM12 > 100 µM | LOX IMVI 22 µM | M14 39.2 µM | MDA-N > 95.3 µM | NCI-H226 60.7 µM | NCI/ADR-RES 32.4 µM | OVCAR-3 41.4 µM | OVCAR-4 33.7 µM | OVCAR-5 > 58.9 µM | SF-268 20.4 µM | SF-539 32.1 µM | SK-MEL-28 > 100 µM | SNB-75 35.4 µM | UACC-257 64.1 µM

FC(F)(F)c1ccc(C2=N/S(c3ccccc3)=N\C(c3ccc(C(F)(F)F)cc3)=N/S(c3ccccc3)=N\2)cc1 (stereo unspecified)
inactive: 786-0 80 µM | A549 > 100 µM | HOP-92 > 100 µM | KM12 > 100 µM | LOX IMVI > 100 µM | M14 > 100 µM | MDA-N > 100 µM | NCI/ADR-RES > 100 µM | OVCAR-3 > 100 µM | OVCAR-4 > 100 µM | OVCAR-5 > 100 µM | SF-268 > 100 µM | SF-539 > 100 µM | SK-MEL-28 > 100 µM | SNB-75 > 100 µM | SR > 100 µM | UACC-257 > 100 µM

CCCC(CCN)(CCN)[N+](=O)[O-]
inactive: 786-0 > 100 µM | A549 > 100 µM | HL-60 > 100 µM | KM12 > 100 µM | M14 > 100 µM | MDA-N > 100 µM | NCI-H226 > 100 µM | NCI/ADR-RES > 100 µM | OVCAR-4 > 100 µM | OVCAR-5 > 100 µM | SF-268 > 100 µM | SF-539 > 100 µM | SNB-75 11.2 µM | SR > 100 µM | UACC-257 > 100 µM

Reference: ChEMBL document CHEMBL1201862, “PubChem BioAssay data set” (2004)
